The nature of this series: physchem. To be noted: phosphate buffer, pH 7, aqueous buffer.

The structures appear in SMILES notation.

Protocol: Solubility of the compounds is determined at four fixed concentrations and is expressed as µg/mL. Solubility or insolubility is measured in phosphate buffer using a turbidometric plate reader by automated micro addition of a compound predissolved in DMSO. Solubilities at 50, 100, 200 and 250 or 100, 200, 400 and 500 micrograms/mL can be determined by predissolving 1 mg of compound in sufficient DMSO to reach an initial concentration of 20 or 40 µg/ µL.
A spectramax 250 UV transparent 96 well microplate is filled with 200 µL of Stock pH 7 phosphate buffer solution. A series of 25 absorption readings in a 5 by 5 matrix at a wavelength of 492nm are taken for each well in the microplate containing pH buffer alone. […]
After compound addition, a second scan consisting of a series of 25 absorption readings in a 5 by 5 matrix are taken for each well in the microplate at the same wavelength as the first blank scan. The raw compound OD values for each reading in the 5 by 5 matrix are subtracted from the corresponding "blank" values in the 5 by 5 matrix to provide the raw solubility OD data.
Data obtained from the Tecan SLT Spectra Image Reader is then analyzed using a Visual Basic computer program (or can be calculated manually according to methods well known to those of ordinary skill in the art), so as to provide solubility data for each compound.

`CC(C)(O)CC[C@H](C[C@H](O)[C@H](Cc1cccc(Cl)c1)NC(=O)c1cnc2ccccc2n1)C(N)=O` [Example 2, Quinoxaline-2-carboxylic acid [4(R)-carbamoyl-1(S)-(3-chloro-benzyl)-2(S),7-dihydroxy-7-methyl-octyl]-amide] gave a solubility greater than 100 µg/mL. Compound `CC(C)(F)CC[C@H](C[C@H](O)[C@H](Cc1ccccc1)NC(=O)c1cnc(Cl)c(Cl)c1)C(N)=O` [Example 247] displayed a solubility of less than 5 µg/mL.

Usually solubility stands for how much of the substance goes into solution per volume. Read a low solubility as a poorly soluble substance.

For the origin of these results see EP1051405B1, “NOVEL DIHYDROXYHEXANOIC ACID DERIVATIVES” (Pfizer Products Inc., priority 1998, dated 1999).
